Test system: TGF-β
Assay: TGFβ/SMAD Signaling Pathway SBE Reporter-HEK293 luciferase assay (inhibition of TGF-β)
Format: cell-based
Conditions: SBE reporter-HEK293 cells, human TGFβ1 20 ng/ml; for IC50: 4 h compound pre-incubation, ~18 hours, luciferase luminescence; for inhibitory activity against TGF-β: statement in words
Method: Transforming TGF-β regulates the proliferation and differentiation of fibroblasts, which are the primary constituent cells of fibrous tissues. As such, representative compounds of the present disclosure were tested for their ability to inhibit TGF-β.
• 1. TGFβ/SMAD Signaling Pathway SBE Reporter—HEK293 Cell Line BPS Bioscience Catalog #: 60653 • 2. Human TGFβ1 (BPS Bioscience #90900-1) • 3. SIS3 (Sigma #S0447): inhibitor of TGFβ pathway. Prepare stock solution in DMSO. • 4. Growth medium: MEM medium (Invitrogen #11095-080)+10% FBS (ATCC #30-2020)+1% non-essential amino acids (Lonza #13-114E)+1 mM Na pyruvate (Lonza #13-115E)+1% Penicillin/Streptomycin (ATCC #30-2300)+400 μg/ml of Geneticin (Invitrogen #11811-031). • 5. Assay medium: MEM medium+0.5% FBS+1% non-essential amino acids+1 mM Na pyruvate+1% Pen/Strep • 6. 96-well tissue culture-treated white clear-bottom assay plate (Corning #3610) • 7. ONE-Step™ Luciferase Assay System (BPS, Cat. #60690)
SBE reporter-HEK293 cells were harvested from culture in growth medium and seeded at a density of ˜10,000 cells per well into a white clear-bottom 96-well microplate in 100 μl of assay medium. The plate containing cells were incubated at 37° C. in a CO2 incubator. 24 hours after seeding, cells were washed with 100 μL of assay buffer and treated with three fold serial dilution of compounds in 50 μl assay medium. Cells were incubated at 37° C. in a CO2 incubator for 4 hours. For control wells 50 μl assay medium was added with no inhibitor. Each treatment was done in triplicate. After 4 hours of incubation, 5 μl of human TGFβ1 in assay medium was added to cells (final TGFβ1 concentration=20 ng/ml). 5 μl of assay medium was added to the unstimulated control wells (for determining the basal activity). The plate with cells was incubated at 37° C. in a CO2 incubator overnight (˜18 hours). After 18 hours of incubation Luciferase assay was performed using ONE-Step™ Luciferase Assay System according to the protocol provided: 50 μl of ONE-Step™ Luciferase reagent was added per well and shook at room temperature for ˜10 minutes. Luminescence was measured using a luminometer.

**Q.** How did the IC50 turn out when `COc1cc2c(cc1OC)CN(C(=O)/C=C/c1c(-c3ccc(Cl)cc3)nc3ccccn13)CC2` [Compound 6] was run?
**A.** The IC50 was 5.45 µM.

**Q.** And the “inhibitory activity against TGF-β” value?
**A.** Its value is “showed inhibitory activity”.

**Q.** For `O=C(/C=C/c1c(-c2ccccc2)nc2ccccn12)N1CCOCC1` [Compound 8], which IC50 is on record?
**A.** Its IC50 is 3.72 µM.

**Q.** What about the “inhibitory activity against TGF-β” value of the same compound?
**A.** Its value is “showed inhibitory activity”.

**Q.** Which results are given for `COc1cc2c(cc1OC)CN(C(=O)/C=C/c1c(-c3ccccc3)nc3ccccn13)C2` [Compound 9]?
**A.** IC50: 6.11 µM; inhibitory activity against TGF-β: showed inhibitory activity

**Q.** Which results are given for `COc1cc2c(cc1OC)CN(C(=O)/C=C/c1c(-c3ccccc3)nc3ccc(F)cn13)C2` [Compound 10]?
**A.** IC50: 4.32 µM; inhibitory activity against TGF-β: showed inhibitory activity

**Q.** What does the source list for `COc1cc2c(cc1OC)CN(C(=O)/C=C/c1c(-c3ccc(F)cc3)nc3ccccn13)C2` [Compound 11]?
**A.** IC50: 3.52 µM; inhibitory activity against TGF-β: showed inhibitory activity

**Q.** `COc1cc2c(cc1OC)CN(C(=O)/C=C/c1c(-c3ccccc3)n(C)c3ncccc13)CC2` [SIS3, reference compound] was tested. Which IC50 did it give?
**A.** The IC50 was 2.65 µM.

Reference: US20260027124A1, “SUBSTITUTED IMIDAZO[1,2-A]PYRIDINE COMPOUNDS AND THE USE THEREOF IN THE TREATMENT AND PREVENTION OF FIBROSIS” (MOEXA PHARMACEUTICALS LIMITED, priority 2022, published 2026)
